Data on 20 compounds can be found in patent US20240166617A1, “PHOSPHOINOSITIDE 3 KINASE BETA INHIBITORS AND COMPOSITIONS AND METHODS THEREOF” (Geode Therapeutics Inc., priority 2021, published 2024).

In the assay the test system is phosphorylation of AKT in HCC70 cells. The experiment in a line: Cellular assay: phosphorylation of AKT in HCC70 cells (western blotting). It is filed as cell-based. As to conditions: Homo sapiens, HCC70, 1 h. As to the method:
Cellular activity of PI3Kβ inhibitors was determined by quantifying the phosphorylation of AKT in HCC70 cells. AKT phosphorylated at Ser473 and Thr308 were measured using western blotting and specific primary antibodies from Cell Signaling (CST), Danvers, MA. On day 1, HCC70 cells (ATCC #CRL-2315) were seeded into Falcon 12-well cell Culture Plate (Corning #353043) at 100,000 cells per well, in 1 ml complete culture medium (RPMI-1640, GIBCO #11875093) containing 10% heat inactivated FBS (GIBCO #10438026), 1% Pen-Strep (GIBCO #15140122) and incubated at 37° AC, 5% CO2 overnight. On day 2, compound (500 nM) or DMSO (0.1%, Sigma Aldrich #8418) was added and cells were further incubated for 60 min at 37° AC, 5% CO2 in a total volume of 1 ml fresh medium.
At the end of the cell treatment period, media were removed by aspiration and adherent cells were lysed in 100 uL RIPA buffer (Sigma Aldrich #R0278). Equal volume (15 uL) of proteins was resolved by SDS-PAGE and transferred to PVDF (Millipore #IPFL00010) membrane for immunoblot analysis. Primary antibodies to the following proteins were used for immunoblotting: phosphor-AKT (Ser473) (CST #4060), phosphor-AKT (Thr308) (CST #2965), total AKT (CST #9272). Secondary goat anti-rabbit IgG fluorophore conjugated antibody (Invitrogen #A21109) was used to visualize the indicated proteins on an Odyssey CLx imaging system (Li-Cor). Quantification of band intensities was performed using Odyssey 3.0 software. Inhibition of Akt activity was calculated by band intensities using the formula: […]
Index was evaluated by % of AI. Data represent Index+(20˜60%), ++(60%˜80%), +++(80%˜90%), and ++++>90%.
In general terms: In western blotting, separated proteins are transferred to a membrane and probed.

The mark [1] stands for this setting: HCC70 cells, compound 500 nM, 60 min, inhibition of Akt activity from band intensities, read-out: Index of AI (HCC70) p-AKT Thr 308.
Where [2] appears, read: HCC70 cells, compound 500 nM, 60 min, inhibition of Akt activity from band intensities, read-out: Index of AI (HCC70) p-AKT ser 473.

Read-outs that look alike come from different tables or passages of the source.

For the compound `CC1Cc2c(F)cc(F)cc2N1Cc1cc(C(=O)N(C)C)cc2c(=O)cc(N3CCOCC3)oc12` (stereo not shown) [Compound 63, 8-((4,6-difluoro-2-methylindolin-1-yl)methyl)-N,N-dimethyl-2-morpholino-4-oxo-4H-chromene-6-carboxamide], the inhibition at 0.5 µM under setting [1] was more than 90% and the inhibition at 0.5 µM under setting [2] was more than 90%.
As for `CC(C)(O)CNC(=O)c1cc(CN2CCc3c(F)cc(F)cc32)c2oc(N3CCOCC3)cc(=O)c2c1` [Compound 84, 8-((4,6-difluoroindolin-1-yl)methyl)-N-(2-hydroxy-2-methylpropyl)-2-morpholino-4-oxo-4H-chromene-6-carboxamide], the inhibition at 0.5 µM is 80 to 90% under setting [1] and 80 to 90% under setting [2].
On to `CC1Cc2c(F)cc(F)cc2N1C(C)c1cc(C(=O)N(C)C)cn2c(=O)cc(N3CCOCC3)nc12` (stereo not shown) [Compound 96, 9-(1-(4,6-difluoro-2-methylindolin-1-yl)ethyl)-N,N-dimethyl-2-morpholino-4-oxo-4H-pyrido[1,2-a]pyrimidine-7-carboxamide], for which the inhibition at 0.5 µM is more than 90% under setting [1] and more than 90% under setting [2].
In the case of `C#Cc1cc(CNc2cc(F)cc(F)c2)c2oc(N3CCOCC3)cc(=O)c2c1` [Compound 5, 8-(((3,5-difluorophenyl)amino)methyl)-6-ethynyl-2-morpholino-4H-chromen-4-one], the inhibition at 0.5 µM (read-out: Index of AI (HCC70) p-AKT Thr 308) lay in the range of 60 to 80% and the inhibition at 0.5 µM (read-out: Index of AI (HCC70) p-AKT ser 473) fell in the range of 60 to 80%.
On to `CCNC(=O)c1cc(CN2CCc3c(F)cc(F)cc32)c2oc(N3CCOCC3)cc(=O)c2c1` [Compound 80, 8-((4,6-difluoroindolin-1-yl)methyl)-N-ethyl-2-morpholino-4-oxo-4H-chromene-6-carboxamide], for which the inhibition at 0.5 µM under setting [1] fell in the range of 60 to 80% and the inhibition at 0.5 µM under setting [2] lay in the range of 60 to 80%.
In the case of `CC(Nc1cc(F)cc(F)c1)c1cc(NC2=NC(C)(C)CO2)cn2c(=O)cc(N3CCOCC3)nc12` (stereo not shown) [Compound 47, 9-(1-((3,5-difluorophenyl)amino)ethyl)-7-((4,4-dimethyl-4,5-dihydrooxazol-2-yl)amino)-2-morpholino-4H-pyrido[1,2-a]pyrimidin-4-one], the inhibition at 0.5 µM was more than 90% under setting [1] and more than 90% under setting [2].
Turning to `CC(Nc1cc(F)cc(F)c1)c1cc(NC2=NCCN2)cc2c(=O)cc(N3CCOCC3)oc12` (stereo not shown) [Compound 20, 8-(1-((3,5-difluorophenyl)amino)ethyl)-6-((4,5-dihydro-1H-imidazol-2-yl)amino)-2-morpholino-4H-chromen-4-one], the inhibition at 0.5 µM under setting [1] was in the range of 60 to 80% and the inhibition at 0.5 µM under setting [2] fell in the range of 60 to 80%.
As to `CN(C)C(=O)c1cc(CN2CCc3c(F)ccc(F)c32)c2nc(N3CCOCC3)cc(=O)n2c1` [Compound 99, 9-((4,7-difluoroindolin-1-yl)methyl)-N,N-dimethyl-2-morpholino-4-oxo-4H-pyrido[1,2-a]pyrimidine-7-carboxamide], the inhibition at 0.5 µM runs as follows: under setting [1], 80 to 90%; under setting [2], 80 to 90%.
Take `O=c1cc(N2CCOCC2)oc2c(CNc3cc(F)cc(F)c3)cc(N3CCOCC3)cc12` [Compound 1, 8-(((3,5-difluorophenyl)amino)methyl)-2,6-dimorpholino-4H-chromen-4-one]: the inhibition at 0.5 µM is, setting by setting: under setting [1], 60 to 80%; under setting [2], 60 to 80%.
For `C/C(O)=C(\C#N)C(=O)Nc1cc(C(C)Nc2cc(F)cc(F)c2)c2oc(N3CCOCC3)cc(=O)c2c1` (stereo not shown) [Compound 23, (Z)-2-cyano-N-(8-(1-((3,5-difluorophenyl)amino)ethyl)-2-morpholino-4-oxo-4H-chromen-6-yl)-3-hydroxybut-2-enamide], the inhibition at 0.5 µM reads like this: under setting [1], 60 to 80%; under setting [2], 60 to 80%.
`C[C@@H]1CN(c2cc(=O)n3cc(C(=O)N(C)C)cc(CN4CCc5c(F)cccc54)c3n2)CCO1` [Compound 101, (R)-9-((4-fluoroindolin-1-yl)methyl)-N,N-dimethyl-2-(2-methylmorpholino)-4-oxo-4H-pyrido[1,2-a]pyrimidine-7-carboxamide]: the inhibition at 0.5 µM by setting is: under setting [1], more than 90%; under setting [2], more than 90%.
For the compound `CN(C)C(=O)c1cc(CN2CCc3cccc(Cl)c32)c2oc(N3CCOCC3)cc(=O)c2c1` [Compound 36, 8-((7-chloroindolin-1-yl)methyl)-N,N-dimethyl-2-morpholino-4-oxo-4H-chromene-6-carboxamide], the inhibition at 0.5 µM was more than 90% under setting [1] and more than 90% under setting [2].
In the case of `CN(C)CCN(C)C(=O)c1cc(CN2CCc3c(F)cc(F)cc32)c2oc(N3CCOCC3)cc(=O)c2c1` [Compound 40, 8-((4,6-difluoroindolin-1-yl)methyl)-N-(2-(dimethylamino)ethyl)-N-methyl-2-morpholino-4-oxo-4H-chromene-6-carboxamide], the inhibition at 0.5 µM under setting [1] is more than 90% and the inhibition at 0.5 µM under setting [2] was more than 90%.
Regarding `CC(Nc1cc(F)cc(F)c1)c1cc(-c2c[nH][nH]c2=O)cc2c(=O)cc(N3CCOCC3)oc12` (stereo not shown) [Compound 61, 4-(8-(1-((3,5-difluorophenyl)amino)ethyl)-2-morpholino-4-oxo-4H-chromen-6-yl)-1H-pyrazol-3(2H)-one], the inhibition at 0.5 µM is 20 to 60% under setting [1] and 20 to 60% under setting [2].
In the case of `CC(Nc1cc(F)cc(F)c1)c1cc(S(=O)(=O)N2CC(N)C2)cc2c(=O)cc(N3CCOCC3)oc12` (stereo not shown) [Compound 17, 6-((3-aminoazetidin-1-yl)sulfonyl)-8-(1-((3,5-difluorophenyl)amino)ethyl)-2-morpholino-4H-chromen-4-one], the inhibition at 0.5 µM runs as follows: under setting [1], 60 to 80%; under setting [2], 60 to 80%.
As for `CC(=O)Nc1cc(CNc2cc(F)cc(F)c2)c2oc(N3CCOCC3)cc(=O)c2c1` [Compound 8, N-(8-(((3,5-difluorophenyl)amino)methyl)-2-morpholino-4-oxo-4H-chromen-6-yl)acetamide], the inhibition at 0.5 µM by setting is: under setting [1], 60 to 80%; under setting [2], 60 to 80%.
Regarding `O=c1cc(N2CCOCC2)oc2c(CNc3cc(F)cc(F)c3)cc(C3CC3)cc12` [Compound 6, 6-cyclopropyl-8-(((3,5-difluorophenyl)amino)methyl)-2-morpholino-4H-chromen-4-one], the inhibition at 0.5 µM under setting [1] is 60 to 80% and the inhibition at 0.5 µM under setting [2] was 60 to 80%.
Take `O=C(c1cc(CN2CCc3c(F)cc(F)cc32)c2oc(N3CCOCC3)cc(=O)c2c1)N1CCOCC1` [Compound 41, 8-((4,6-difluoroindolin-1-yl)methyl)-6-(morpholine-4-carbonyl)-2-morpholino-4H-chromen-4-one]: the inhibition at 0.5 µM is 80 to 90% under setting [1] and 80 to 90% under setting [2].
Consider `CN(C)C(=O)c1cc(CN2CCc3c(F)cccc32)c2oc(N3CCOCC3)cc(=O)c2c1` [Compound 68, 8-((4-fluoroindolin-1-yl)methyl)-N,N-dimethyl-2-morpholino-4-oxo-4H-chromene-6-carboxamide], for which the inhibition at 0.5 µM was more than 90% under setting [1] and more than 90% under setting [2].
`CC(Nc1cc(F)cc(F)c1)c1cc(CC(=O)N(C)C)cc2c(=O)cc(N3CCOCC3)oc12` (stereo not shown) [Compound 24, 2-(8-(1-((3,5-difluorophenyl)amino)ethyl)-2-morpholino-4-oxo-4H-chromen-6-yl)-N,N-dimethylacetamide]: the inhibition at 0.5 µM was more than 90% under setting [1] and more than 90% under setting [2].
